In this test the test system is NQO1 specific enzyme activity in BEAS-2B cells (marker for NRF2 activation). In words: BEAS-2B NQO1 MTT Assay. The class given is cell-based. As to conditions: Homo sapiens, BEAS-2B, 48 h, NQO1 specific activity induction, 48 hours with compound. The source says: NAD(P)H:quinone oxidoreductase 1 (NQO1), also called DT diaphorase, is a homodimeric FAD-containing enzyme that catalyzes obligatory NAD(P)H-dependent two-electron reductions of quinones and protects cells against the toxic and neoplastic effects of free radicals and reactive oxygen species arising from one-electron reductions. The transcription of NQO1 is finely regulated by NRF2, and thus NQO1 activity is a good marker for NRF2 activation. On day one, frozen BEAS-2B cells (ATCC) were thawed in a water bath, counted, and re-suspended at a concentration of 250,000 cells/mL. Fifty microliters of cells were plated in 384 well black clear-bottomed plates. Plates were incubated at 37° C., 5% CO2 overnight. On day two, plates were centrifuged and 50 nL of compound or controls were added to the cells. Plates were then incubated at 37° C., 5% CO2 for 48 hours. On day four, medium was aspirated from the plate and crude cell lysates were made by adding 13 uL of 1× Cell Signaling Technologies lysis buffer with 1 Complete, Mini, EDTA-free Protease Inhibitor Tablet (Roche) for each 10 mL of lysis buffer. After lysis plates were incubated for 20 minutes at room temperature. Two microliters of lysate were removed for use in Cell Titer Glo assay (Promega) and MTT cocktail was prepared (Prochaska et. al. 1998) for measurement of NQO1 activity. Fifty microliters of MTT cocktail is added to each well, plate is centrifuged, and analyzed on an Envision plate reader (Perkin Elmer) using Absorbance 570 nm label for 30 minutes. Product formation was measured kinetically and the pEC50 of NQO1 specific activity induction was calculated by plotting the change in absorbance (Delta OD/min) versus the log of compound concentration followed by 3-parameter fitting.
pEC50 is the negative log of the EC50.
EC50s<1 nM (+++++), EC50s 1 nM-10 nM (++++), EC50s 10 nM-100 nM (+++), EC50s 100 nM-1 uM (++), EC50s 1 uM-10 uM (+), EC50s>10 uM (−), or were not determined (ND).
Broadly, the EC50 is the concentration giving half of the maximal effect. For `CCn1nnc2c(C)c([C@H](c3cc(CN4C[C@@H](C)Cc5ccccc5S4(=O)=O)c(C)s3)C(C)(C)C(N)=O)ccc21` [Example 39, (S)-3-(1-Ethyl-4-methyl-1H-benzo[d][1,2,3]triazol-5-yl)-2,2-dimethyl-3-(5-methyl-4-(((S)-4-methyl-1,1-dioxido-4,5-dihydrobenzo[f][1,2]thiazepin-2(3H)-yl)methyl)thiophen-2-yl)propanamide], the concentration for a half-maximal effect (EC50) fell in the range of 10 to 100 nM.
Take `CC[C@@H]1CN(Cc2cc([C@H](c3ccc4c(nnn4CC)c3F)C(C)(C)C(=O)O)sc2Cl)S(=O)(=O)c2ccccc2O1` [Example 40, (S)-3-(5-Chloro-4-(((R)-4-ethyl-1,1-dioxido-3,4-dihydro-2H-benzo[b][1,4,5]oxathiazepin-2-yl)methyl)thiophen-2-yl)-3-(1-ethyl-4-fluoro-1H-benzo[d][1,2,3]triazol-5-yl)-2,2-dimethylpropanoic Acid]: the EC50 lay within 10 to 100 nM.
Turning to `CC[C@H]1Cc2ccccc2S(=O)(=O)N(Cc2nc([C@@H](c3ccc4c(nnn4CC)c3C)C(C)(C)C(=O)O)sc2C)C1` [Example 41, (S)-3-(4-(((S)-4-Ethyl-1,1-dioxido-4,5-dihydrobenzo[f][1,2]thiazepin-2(3H)-yl)methyl)-5-methylthiazol-2-yl)-3-(1-ethyl-4-methyl-1H-benzo[d][1,2,3]triazol-5-yl)-2,2-dimethylpropanoic Acid], the EC50 was less than 1 nM.
For `CC[C@H]1Cc2ccccc2S(=O)(=O)N(Cc2nc([C@@H](c3ccc4c(nnn4CC)c3C)C(C)(C)C(=O)Nc3cccnc3)sc2C)C1` [Example 42, (S)-3-(4-(((S)-4-Ethyl-1,1-dioxido-4,5-dihydrobenzo[f][1,2]thiazepin-2(3H)-yl)methyl)-5-methylthiazol-2-yl)-3-(1-ethyl-4-methyl-1H-benzo[d][1,2,3]triazol-5-yl)-2,2-dimethyl-N-(pyridin-3-yl)propanamide], the EC50 was 10 to 100 nM.
As for `CCn1nnc2c(F)c([C@@H](c3cc(CN4C[C@@H](C)Cc5ccc(C(F)(F)F)cc5S4(=O)=O)c(Cl)s3)C(C)(C)C(=O)O)ccc21` [Example 43, (S)-3-(5-Chloro-4-(((S)-4-methyl-1,1-dioxido-8-(trifluoromethyl)-4,5-dihydrobenzo[f][1,2]thiazepin-2(3H)-yl)methyl)thiophen-2-yl)-3-(1-ethyl-4-fluoro-1H-benzo[d][1,2,3]triazol-5-yl)-2,2-dimethylpropanoic Acid], the figure is 10 to 100 nM; as for `CCn1nnc2c(C)c([C@H](c3nc(CN4C[C@@H](C)Cc5cc(C(F)(F)F)ccc5S4(=O)=O)c(C)s3)C(C)(C)C(=O)O)ccc21` [Example 44, (S)-3-(1-Ethyl-4-methyl-1H-benzo[d][1,2,3]triazol-5-yl)-2,2-dimethyl-3-(5-methyl-4-(((S)-4-methyl-1,1-dioxido-7-(trifluoromethyl)-4,5-dihydrobenzo[f][1,2]thiazepin-2(3H)-yl)methyl)thiazol-2-yl)propanoic Acid], less than 1 nM.
Regarding `CCn1nnc2c(C)c([C@H](c3nc(CN4C[C@@H](C)Cc5cc(C(F)(F)F)ccc5S4(=O)=O)c(C)s3)C(C)(C)C(=O)Nc3cccnc3)ccc21` [Example 45, (S)-3-(1-Ethyl-4-methyl-1H-benzo[d][1,2,3]triazol-5-yl)-2,2-dimethyl-3-(5-methyl-4-(((S)-4-methyl-1,1-dioxido-7-(trifluoromethyl)-4,5-dihydrobenzo[f][1,2]thiazepin-2(3H)-yl)methyl)thiazol-2-yl)-N-(pyridin-3-yl)propanamide], the EC50 lay in the range of 10 to 100 nM.
Take `CC[C@@H]1CN(Cc2cc([C@H](CC(=O)O)c3ccc4c(nnn4CC)c3C)sc2C)S(=O)(=O)c2cccnc2O1` [Example 46, (R)-3-(4-(((R)-4-Ethyl-1,1-dioxido-3,4-dihydro-2H-pyrido[2,3-b][1,4,5]oxathiazepin-2-yl)methyl)-5-methylthiophen-2-yl)-3-(1-ethyl-4-methyl-1H-benzo[d][1,2,3]triazol-5-yl)propanoic Acid]: the half-maximal effective concentration (EC50) was 10 to 100 nM.
Take `CC[C@@H]1CN(Cc2cc([C@H](CC(=O)O)c3ccc4c(nnn4CC)c3C)sc2C)S(=O)(=O)c2cnccc2O1` [Example 47, (R)-3-(4-(((R)-4-Ethyl-1,1-dioxido-3,4-dihydro-2H-pyrido[4,3-b][1,4,5]oxathiazepin-2-yl)methyl)-5-methylthiophen-2-yl)-3-(1-ethyl-4-methyl-1H-benzo[d][1,2,3]triazol-5-yl)propanoic Acid]: the EC50 lay in the range of 10 to 100 nM.
In the case of `CC[C@H]1Cc2ccc(C(F)(F)F)cc2S(=O)(=O)N(Cc2nc([C@@H](c3ccc4c(nnn4CC)c3C)C(C)(C)C(=O)Nc3cccnc3)sc2C)C1` [Example 48, (S)-3-(4-(((S)-4-Ethyl-1,1-dioxido-8-(trifluoromethyl)-4,5-dihydrobenzo[f][1,2]thiazepin-2(3H)-yl)methyl)-5-methylthiazol-2-yl)-3-(1-ethyl-4-methyl-1H-benzo[d][1,2,3]triazol-5-yl)-2,2-dimethyl-N-(pyridin-3-yl)propanamide], the EC50 fell in the range of 10 to 100 nM.
Take `CC[C@H]1Cc2ccc(C(F)(F)F)cc2S(=O)(=O)N(Cc2nc([C@@H](c3ccc4c(nnn4CC)c3C)C(C)(C)C(=O)O)sc2C)C1` [Example 49, (S)-3-(4-(((S)-4-Ethyl-1,1-dioxido-8-(trifluoromethyl)-4,5-dihydrobenzo[f][1,2]thiazepin-2(3H)-yl)methyl)-5-methylthiazol-2-yl)-3-(1-ethyl-4-methyl-1H-benzo[d][1,2,3]triazol-5-yl)-2,2-dimethylpropanoic Acid]: the half-maximal effective concentration (EC50) was less than 1 nM.
For `CCn1nnc2c(C)c([C@H](c3cc(CN4C[C@@H](C)Cc5ccc(C(F)(F)F)cc5S4(=O)=O)n(C)n3)C(C)(C)C(=O)O)ccc21` [Example 50, (S)-3-(1-Ethyl-4-methyl-1H-benzo[d][1,2,3]triazol-5-yl)-2,2-dimethyl-3-(1-methyl-5-(((S)-4-methyl-1,1-dioxido-8-(trifluoromethyl)-4,5-dihydrobenzo[f][1,2]thiazepin-2(3H)-yl)methyl)-1H-pyrazol-3-yl)propanoic Acid], the EC50 was 1 to 10 nM.
As to `CC[C@@H]1CN(Cc2cc([C@@H](c3ccc4c(nnn4CC)c3C)C(C)(C)C(=O)Nc3cccnc3)sc2C)S(=O)(=O)c2ccccc2O1` [Example 51, (S)-3-(4-(((R)-4-Ethyl-1,1-dioxido-3,4-dihydro-2H-benzo[b][1,4,5]oxathiazepin-2-yl)methyl)-5-methylthiophen-2-yl)-3-(1-ethyl-4-methyl-1H-benzo[d][1,2,3]triazol-5-yl)-2,2-dimethyl-N-(pyridin-3-yl)propanamide], the concentration giving a half-maximal response (EC50) lay within 1 to 10 nM.
On to `CCn1nnc2c(C)c([C@H](c3cc(CN4C[C@@H](C)Cc5ccccc5S4(=O)=O)c(C)s3)C(C)(C)C(=O)Nc3cccnc3)ccc21` [Example 52, (S)-3-(1-Ethyl-4-methyl-1H-benzo[d][1,2,3]triazol-5-yl)-2,2-dimethyl-3-(5-methyl-4-(((S)-4-methyl-1,1-dioxido-4,5-dihydrobenzo[f][1,2]thiazepin-2(3H)-yl)methyl)thiophen-2-yl)-N-(pyridin-3-yl)propanamide], for which the EC50 lay in the range of 1 to 10 nM.
As for `CC[C@@H]1CN(Cc2cc([C@@H](c3ccc4c(nnn4CC)c3F)C(C)(C)C(=O)O)sc2Cl)S(=O)(=O)c2ccccc2O1` [Example 53, (R)-3-(5-Chloro-4-(((R)-4-ethyl-1,1-dioxido-3,4-dihydro-2H-benzo[b][1,4,5]oxathiazepin-2-yl)methyl)thiophen-2-yl)-3-(1-ethyl-4-fluoro-1H-benzo[d][1,2,3]triazol-5-yl)-2,2-dimethylpropanoic Acid], the figure is less than 1 nM; as for `CC[C@@H]1CN(Cc2cc([C@@H](c3ccc4c(nnn4CC)c3C)C(C)(C)C(=O)O)sc2Cl)S(=O)(=O)c2cccnc2O1` [Example 54, (S)-3-(5-Chloro-4-(((R)-4-ethyl-1,1-dioxido-3,4-dihydro-2H-pyrido[2,3-b][1,4,5]oxathiazepin-2-yl)methyl)thiophen-2-yl)-3-(1-ethyl-4-methyl-1H-benzo[d][1,2,3]triazol-5-yl)-2,2-dimethylpropanoic Acid], less than 1 nM; as for `CC[C@H]1Cc2ccc(C(F)(F)F)cc2S(=O)(=O)N(Cc2cc([C@@H](c3ccc4c(nnn4CC)c3C)C(C)(C)C(=O)O)sc2C)C1` [Example 55, (S)-3-(4-(((S)-4-Ethyl-1,1-dioxido-8-(trifluoromethyl)-4,5-dihydrobenzo[f][1,2]thiazepin-2(3H)-yl)methyl)-5-methylthiophen-2-yl)-3-(1-ethyl-4-methyl-1H-benzo[d][1,2,3]triazol-5-yl)-2,2-dimethylpropanoic Acid], less than 1 nM.
Take `CC[C@@H]1CN(Cc2cc([C@@H](c3ccc4c(nnn4CC)c3C)C(C)(C)C(=O)O)sc2Cl)S(=O)(=O)c2cnccc2O1` [Example 56, (S)-3-(5-Chloro-4-(((R)-4-ethyl-1,1-dioxido-3,4-dihydro-2H-pyrido[4,3-b][1,4,5]oxathiazepin-2-yl)methyl)thiophen-2-yl)-3-(1-ethyl-4-methyl-1H-benzo[d][1,2,3]triazol-5-yl)-2,2-dimethylpropanoic Acid]: the half-maximal effective concentration (EC50) is less than 1 nM.

These data come from US11117905B2, “Bisaryl heterocycles as NRF2 activators” (GLAXOSMITHKLINE INTELLECTUAL PROPERTY DEVELOPMENT LIMITED, priority 2016, dated 2021).
